Measured values from patent US20230322785A1, “ADENOSINE A2A AND A2B RECEPTOR DUAL ANTAGONISTS FOR IMMUNO-ONCOLOGY” (Merck Sharp & Dohme LLC, priority 2020, published 2023).

What follows are molecules tested against T1, human A2A adenosine receptor (Homo sapiens, UniProt P29274) (assay: A2A binding affinity, Method (B): scintillation proximity assay (SPA) with [3H]SCH58261). Settings: membranes of HEK293 or CHO cells expressing the human receptor.
T1 construct: expressed in transfected cells; host or cells: HEK293 or CHO cells
T1 sequence (P29274 whole entry): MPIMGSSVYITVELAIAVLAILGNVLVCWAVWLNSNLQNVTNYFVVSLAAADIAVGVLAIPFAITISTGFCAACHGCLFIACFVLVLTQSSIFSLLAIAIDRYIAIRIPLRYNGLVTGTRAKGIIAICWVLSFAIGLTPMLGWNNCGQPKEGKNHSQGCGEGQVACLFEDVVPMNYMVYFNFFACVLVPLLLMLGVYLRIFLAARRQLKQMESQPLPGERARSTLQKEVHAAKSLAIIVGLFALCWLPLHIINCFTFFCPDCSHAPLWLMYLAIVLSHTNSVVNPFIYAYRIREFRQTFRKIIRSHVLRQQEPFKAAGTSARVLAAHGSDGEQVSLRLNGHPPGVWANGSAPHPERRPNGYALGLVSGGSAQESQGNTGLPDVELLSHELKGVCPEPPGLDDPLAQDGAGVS
Text: Method (A) describes the procedure used to measure A2A binding affinity using radioligand binding. Method (B) describes the procedure used to measure A2A binding affinity using SPA technology. The method used to measure A2B binding affinity is also described below. The method used to determine the A2A IC50 value reported for each compound in the table is indicated next to the reported value. The A2B IC50 value measured using the A2B binding affinity assay is shown in the table next to the compound under the corresponding A2A value.
The A2A receptor affinity binding assay measured the amount of binding of a tritiated ligand with high affinity for the A2A adenosine receptor to membranes made from HEK293 or CHO cells recombinantly expressing the human A2A adenosine receptor, in the presence of varying concentrations of a compound of the invention. The data were generated using either filtration binding or a homogenous scintillation proximity assay (SPA).
Method (B): Measurement of A2A Binding Affinity Using SPA
Binding affinity using SPA was conducted as follows. Test compounds (50 nL) were dispensed into individual wells of a 384-well OptiPlate™ well (Perkin Elmer) by Echo® acoustic liquid transfer (Labcyte). 20 µL of 1.25 nM [^3H] SCH58261 ((7-(2-phenylethyl)-5-amino-2-(2-furyl)-pyrazolo-[4,3-e]-1,2,4-triazolo[1,5-c]pyrimidine)) in DPBS assay buffer (Dulbecco’s phosphate buffered saline without calcium and magnesium, ThermoFisher Scientific, Cat. No. A1285601) supplemented with 10 mM MgCl2 was added. A2A receptor-expressing membranes were incubated with 20 µg/mL adenosine deaminase (Roche, Cat. No. 10 102 105 001) for 15 min at room temperature. The receptor-expressing membranes were then combined with wheat germ agglutinin-coated yttrium silicate SPA beads (GE Healthcare, Cat. No. RPNQ0023) in a ratio of […] (w/w) and incubated for 30 min at room temperature. 30 µL of the membrane/bead mixture (0.25 µg and 25 µg per well respectively) were added to the 384-well OptiPlate™ well. To define total and non-specific binding, wells containing 1% DMSO or 1 µM CGS 15943 (Tocris Bioscience, Cat. No. 1699) respectively were also included in the experiment. The plate was incubated for 1 h at room temperature with agitation. The assay plate was then incubated for an h to allow the beads to settle before data were collected using a TopCount® (Perkin Elmer) scintillation counter. After normalization to total and non-specific binding, the percent effect at each compound concentration was calculated. The plot of percent effect versus the log of compound concentration was analyzed electronically using a 4-parameter logistic fit based on the Levenberg-Marquardt algorithm to generate IC50 values.

Row | SMILES | IC50 [nM]
1 | COc1cccc2c1nc(N)n1nc(CC(=O)NCc3ccc(C(F)(F)F)cc3)nc21 [Example 4.4, 2-(5-amino-7-methoxy-[1,2,4]triazolo[1,5-c]quinazolin-2-y1)-N-(4-(trifluoromethyl)benzyl)acetamide] | 9.4
2 | COc1cccc2c1nc(N)n1nc(CNC(C)(C)c3ccccn3)nc21 [Example 7.3, 7-methoxy-2-(((2-(pyridin-2-yl)propan-2-yl)amino)methyl)-[1,2,4]triazolo[1,5-c]quinazolin-5-amine] | 18.5
3 | COc1cccc2c1nc(N)n1nc(CNCC3CC3)nc21 [Example 10.12, 2-(((cyclopropylmethyl)amino)methyl)-7-methoxy-[1,2,4]triazolo[1,5-c]quinazolin-5-amine] | 27.3
4 | COc1cccc2c1nc(N)n1nc(CN[C@H](C)C3CC3)nc21 [Example 7.8, (R)-2-(((1-cyclopropylethyl)amino)methyl)-7-methoxy-[1,2,4]triazolo[1,5-c]quinazolin-5-amine] | 12
5 | COCCN(Cc1ccc(C(F)(F)F)cc1)Cc1nc2c3cccc(OC)c3nc(N)n2n1 [Example 15.15, 7-methoxy-2-(((2-methoxyethyl)(4-(trifluoromethyl)benzyl)amino)methyl)-[1,2,4]triazolo[1,5-c]quinazolin-5-amine] | 6.6
6 | CCN(Cc1nc2c3cccc(OC)c3nc(N)n2n1)CC1CCN(c2ncc(F)cn2)CC1 [Example 15.16, 2-((ethyl((1-(5-fluoropyrimidin-2-yl)piperidin-4-yl)methyl)amino)methyl)-7-methoxy-[1,2,4]triazolo[1,5-c]quinazolin-5-amine] | 31
7 | COc1cccc2c1nc(N)n1nc(CNCc3cccc(C(F)(F)F)c3)nc21 [Example 8.5, 7-methoxy-2-(((3-(trifluoromethyl)benzyl)amino)methyl)-[1,2,4]triazolo[1,5-c]quinazolin-5-amine] | 11.2
8 | COc1cccc2c1nc(N)n1nc(CNCc3ccccc3C(F)(F)F)nc21 [Example 8.4, 7-methoxy-2-(((2-(trifluoromethyl)benzyl)amino)methyl)-[1,2,4]triazolo[1,5-c]quinazolin-5-amine] | 3.2
9 | COc1cccc2c1nc(N)n1nc(CN(Cc3ccc(Br)cc3)CC3CC3)nc21 [Example 15.17, 2-(((4-bromobenzyl)(cyclopropylmethyl)amino)methyl)-7-methoxy-[1,2,4]triazolo[1,5-c]quinazolin-5-amine] | 3.2
10 | COc1cccc2c1nc(N)n1nc(CN[C@@H](C)C(F)(F)F)nc21 [Example 10.9] | 5.9

Results, then the molecule that gave them:

Row | IC50 [nM] | SMILES
11 | 17.6 | COc1cccc2c1nc(N)n1nc(CN(Cc3ccc(C(F)(F)F)cc3)S(=O)(=O)C3CC3)nc21 [Example 19.5, N-((5-amino-7-methoxy-[1,2,4]triazolo[1,5-c]quinazolin-2-yl)methyl)-N-(4-(trifluoromethyl)benzyl)cyclopropanesulfonamide]
12 | 50.7 | COc1cccc2c1nc(N)n1nc(CN(Cc3ccc(C(F)(F)F)cc3)C(=O)NC(C)C)nc21 [Example 20.2, 1-((5-amino-7-methoxy-[1,2,4]triazolo[1,5-c]quinazolin-2-yl)methyl)-3-isopropyl-1-(4-(trifluoromethyl)benzyl)urea]
13 | 3.5 | COc1cccc2c1nc(N)n1nc(CN(Cc3cccc4ncccc34)CC3CC3)nc21 [Example 16.16, 2-(((cyclopropylmethyl)(quinolin-5-ylmethyl)amino)methyl)-7-methoxy-[1,2,4]triazolo[1,5-c]quinazolin-5-amine]
14 | 7.2 | COc1ccc(CN(Cc2nc3c4cccc(OC)c4nc(N)n3n2)CC2CC2)cc1 [Example 16.14, 2-(((cyclopropylmethyl)(4-methoxybenzyl)amino)methyl)-7-methoxy-[1,2,4]triazolo[1,5-c]quinazolin-5-amine]
15 | 10.9 | COc1cccc2c1nc(N)n1nc(CN(Cc3ccc(N4CCOCC4)nc3)CC3CC3)nc21 [Example 16.4, 2-(((cyclopropylmethyl)((6-morpholinopyridin-3-yl)methyl)amino)methyl)-7-methoxy-[1,2,4]triazolo[1,5-c]quinazolin-5-amine]
